{
  "source": "patent US7943314B2",
  "about": "“Methods of detecting viability-associated molecules” (ISEAO Technologies Limited, priority 2005, dated 2011)",
  "key": {"[1]": {"tested_on": "methicillin sensitive strain of Staphylococcus aureus (clinical isolate)", "test": "ATP assay (ligase/quantitative PCR) of Staphylococcus aureus susceptibility to antibiotic, sensitive strain", "type": "cell-based", "settings": "grown 3 hours at 37° C. with 60 μg/ml oxacillin; FIG. 7", "protocol": "(§1) • 1. A bacterial culture of a clinical isolate of a MRSA and antibiotic sensitive strain of Staphylococcus aureus strain were prepared in Nutrient media (Lab M, UK) and grown to stationary phase at 37° C. overnight. • 2. The following day, a hundred-fold dilution of the bacterial cultures were prepared in the same media with 1 μl alkaline phosphatase (10 units, New England Biolabs) with and without 60 μg/ml oxacillin and grown for 3 hours at 37° C. • 3. For the quantitation of ATP, 10 μl of each 0 (10 μl culture removed and treated at time 0 min) and 3 hour culture were added to 2.5 μl of 1M NaOH, 1% (v/v) Triton X-100 and incubated for 5 min before neutralisation with 25 μl of 0.1M HCL. 4. 100 μl of ligase buffer was then added followed by 5 μl ligase/DNA substrate paramagnetic beads (prepared as described in Example 2 above). • 5. After incubation at 8° C. for 60 min, the beads were collected using a magnet and resuspended in 20 μl ligase buffer. • 6. After heating at 95° C. for 5 min, 2 μl of the eluted ligated product was quantitated by PCR. • 7. The quantitative PCR was performed as described previously. Results\nThere is growth and an increase of ATP observed after 3 hr compared to the zero time point. This growth and increase in ATP is not observed when the organism is grown in the presence of oxacillin. […]"}, "[2]": {"tested_on": "methicillin resistant strain of Staphylococcus aureus (MRSA clinical isolate)", "test": "ATP assay (ligase/quantitative PCR) of Staphylococcus aureus susceptibility to antibiotic, MRSA strain", "type": "cell-based", "settings": "grown 3 hours at 37° C. with 60 μg/ml oxacillin; FIG. 8", "protocol": "as §1\nThere is growth and an increase of ATP observed after 3 hr in the absence of antibiotic compared to the zero time point. […] The organism is not sensitive to this antibiotic and continues to grow and produce ATP in the presence of this antibiotic."}},
  "data": [
    {"compound": "Cc1onc(-c2ccccc2)c1C(=O)N[C@@H]1C(=O)N2[C@@H]1SC(C)(C)[C@@H]2C(=O)O", "note": "[oxacillin]", "values": [
      {"measurement": "growth and increase in ATP after 3 hr compared to the zero time point", "setting": "[1]", "result": "not observed"},
      {"measurement": "growth and increase in ATP after 3 hr compared to the zero time point", "setting": "[2]", "result": "reduced but not abrogated"}
    ]}
  ]
}
